The values below come from the supplement of paper PMC6045584.

± gives the standard deviation of the averaged measurements.

Compound in one assay: COCC[n+]1c2c(n(Cc3cnccn3)c1C)C(=O)c1ccccc1C2=O [YM155]
Nature of the assay: area under dose-response curve of surviving fraction (unscaled, Aref=0) (surviving fraction x log10(nM)); higher = more resistant. The following applies: exposure time: 5 days; dose range 0.5-1000 nM. The procedure, abridged: (§1)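 Three screens per tumour cell line were run in 384-well plates at eight inhibitor concentrations from 0.5 to 1000 nM over five days. Surviving fractions, from CellTiter-Glo luminescence normalised to DMSO-only wells, were fitted with 3-parameter logistic curves in the drc R package. The reported area under the curve is the unscaled activity area. It spans log10 dose, and Aref is 0.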

Compound in the next assay: O=C(O)C1(C(=O)O)CCC1.[NH2-].[NH2-].[Pt+2] [CARBOPLATIN]
The assay is described as above. As to conditions: exposure time: 5 days; dose range 0.5-1000 nM. The procedure, abridged:
as §1

Compound in assay [1]: CC(=O)c1c(C)c2cnc(Nc3ccc(N4CCNCC4)cn3)nc2n(C2CCCC2)c1=O
Described as above. As to conditions: exposure time: 5 days; dose range 0.5-1000 nM. The procedure, abridged: as §1

Compound in assay [2]: CC(=O)NCC(=O)N1[C@@H]2CC[C@H]1c1ccc(Nc3ncc(C(F)(F)F)c(NC4CCC4)n3)cc12
The assay is described as above. The following applies: exposure time: 5 days; dose range 0.5-1000 nM. Summed up:
as §1

Compound in another assay: CC(=O)O[C@H]1C(=O)[C@@]2(C)[C@H]([C@H](OC(=O)c3ccccc3)[C@]3(O)C[C@H](OC(=O)[C@H](O)[C@@H](NC(=O)c4ccccc4)c4ccccc4)C(C)=C1C3(C)C)[C@]1(OC(C)=O)CO[C@@H]1C[C@@H]2O [PACLITAXEL]
Described as above. The following applies: exposure time: 5 days; dose range 0.5-1000 nM. Summed up:
as §1

Compound in a further assay: C[C@]1(O)C[C@@H](c2nc(-c3ccc4ccc(-c5ccccc5)nc4c3)c3c(N)nccn32)C1 [OSI-906]
The description is as above. The following applies: exposure time: 5 days; dose range 0.5-1000 nM. Summed up:
as §1

Compound in the next assay: COc1cc2ncnc(Nc3ccc(F)c(Cl)c3)c2cc1OCCCN1CCOCC1 [GEFITINIB]
The description is as above. The following applies: exposure time: 5 days; dose range 0.5-1000 nM. Summed up:
as §1

Compound in the next assay: Cc1ccc(-c2cc(C(F)(F)F)nn2-c2ccc(S(N)(=O)=O)cc2)cc1 [CELECOXIB]
The assay is described as above. The following applies: exposure time: 5 days; dose range 0.5-1000 nM. The procedure, abridged:
as §1

Compound in assay [3]: T1, CC[C@@]1(O)C(=O)OCc2c1cc1n(c2=O)Cc2cc3ccccc3nc2-1 [CAMPTOTHECIN]
Described as above. As to conditions: exposure time: 5 days; dose range 0.5-1000 nM. The procedure, abridged:
as §1

Compound in assay [4]: T1, CAMPTOTHECIN
Nature of the assay: surviving fraction relative to DMSO-only wells; higher = less growth inhibition. The following applies: exposure time: 5 days. The procedure, abridged:
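Five days of continuous inhibitor exposure, at 0.5, 1, 5, 10, 50, 100, 500 and 1000 nM, followed a 24-hour period after log-phase tumour cell lines were seeded at 250–500 cells per well in 384-well plates. Surviving fraction was derived from CellTiter-Glo luminescence relative to the median of DMSO-only wells. Plates were read after 10 minutes at room temperature, and lines screened three times were kept only if replicate Pearson r >0.7 and median Z' >0.3.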

Consider SYO1 SYNOVIAL, for which the “area under dose-response curve” value stood at 1.25 in the assay with YM155; 3.25 in the assay with CARBOPLATIN; 3.14 in [1]; 1.98 in [2]; 0.539 with PACLITAXEL; 2.64 with OSI-906. In addition, the results for the “area under dose-response curve” value in the assay with GEFITINIB, with CELECOXIB and in the assay with CAMPTOTHECIN [3] were 3.17, 3.18 and 0.528, respectively. Moreover, the surviving fraction in the assay with CAMPTOTHECIN [4] (0.5 nM) came to 0.359 ± 0.023; with CAMPTOTHECIN [4] (1 nM), 0.663 ± 0.033; with CAMPTOTHECIN [4] (5 nM) it was 0.325 ± 0.026; with CAMPTOTHECIN [4] (10 nM), 0.15 ± 0.024; in the assay with CAMPTOTHECIN [4] (50 nM), 0.0272 ± 0.0011; with CAMPTOTHECIN [4] (100 nM) it was 0.0304 ± 0.00084. The surviving fraction in the assay with CAMPTOTHECIN [4] (500 nM) was 0.0254 ± 0.0012; with CAMPTOTHECIN [4] (1000 nM), 0.0321 ± 0.0019.

On to T47D BREAST, for which the “area under dose-response curve” value with YM155 is 1.68; with CARBOPLATIN, 3.42; in [1], 3.62; in [2], 3.44; with PACLITAXEL it was 1.04; with OSI-906, 3.09. Also, the “area under dose-response curve” value with GEFITINIB came to 3.54; in the assay with CELECOXIB it was 3.64; with CAMPTOTHECIN [3] it was 1.54. The surviving fraction came to 0.819 ± 0.035 with CAMPTOTHECIN [4] (0.5 nM); 0.878 ± 0.023 with CAMPTOTHECIN [4] (1 nM); 0.743 ± 0.019 with CAMPTOTHECIN [4] (5 nM); 0.528 ± 0.012 in the assay with CAMPTOTHECIN [4] (10 nM); 0.259 ± 0.013 in the assay with CAMPTOTHECIN [4] (50 nM); 0.236 ± 0.0055 with CAMPTOTHECIN [4] (100 nM). Further, the surviving fraction is 0.157 ± 0.006 in the assay with CAMPTOTHECIN [4] (500 nM) and 0.137 ± 0.0086 with CAMPTOTHECIN [4] (1000 nM).
